Test results from patent US12077503B2, “Substituted cyclic amides and their use as herbicides” (FMC CORPORATION, priority 2015, dated 2024).

Key:
Format in all cases: in vivo
[1] = tested on: Kochia (Kochia scoparia); assay: Test A postemergence
Outline: (§1)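 In a loam soil and sand blend, planted seeds got a preemergence directed soil spray, and young plants at the one- to two-leaf stage, 2–10 cm high, got a postemergence application; ~10 d greenhouse hold; injury rated visually, 0 = none, 100 = complete control.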

[2] = tested on: corn (Zea mays); assay: Test A postemergence
Outline: as §1

[3] = tested on: Galium (catchweed bedstraw, Galium aparine); assay: Test A postemergence
Outline: as §1

[4] = tested on: barnyardgrass (Echinochloa crus-galli); assay: Test A postemergence
Outline: as §1

[5] = tested on: giant foxtail (Setaria faberii); assay: Test A postemergence
Outline: as §1

[6] = tested on: blackgrass (Alopecurus myosuroides); assay: Test A postemergence
Outline: as §1

[7] = tested on: ryegrass, Italian (Italian ryegrass, Lolium multiflorum); assay: Test A postemergence
Outline: as §1

[8] = tested on: pigweed (Amaranthus retroflexus); assay: Test A postemergence
Outline: as §1

[9] = tested on: ragweed (common ragweed, Ambrosia elatior); assay: Test A postemergence
Outline: as §1

[10] = tested on: wheat (Triticum aestivum); assay: Test A postemergence
Outline: as §1

[11] = tested on: ducksalad (Heteranthera limosa); assay: Test B flooded paddy test; conditions: Flood, 250 g ai/ha; 0 to 100 scale where 0 is no effect and 100 is complete control; 13 to 15 d
Outline: (§2)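 2-leaf plants; pots flooded 3 cm over soil; cpd added to paddy water; depth held; greenhouse 13–15 d; visual rating vs controls, 0 = no effect, 100 = complete control.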

[12] = tested on: sedge, umbrella (small-flower umbrella sedge, Cyperus difformis); assay: Test B flooded paddy test; conditions: Flood, 250 g ai/ha; 0 to 100 scale where 0 is no effect and 100 is complete control; 13 to 15 d
Outline: as §2

[13] = tested on: barnyardgrass (Echinochloa crus-galli); assay: Test B flooded paddy test; conditions: Flood, 250 g ai/ha; 0 to 100 scale where 0 is no effect and 100 is complete control; 13 to 15 d
Outline: as §2

[14] = tested on: rice (Oryra sativa); assay: Test B flooded paddy test; conditions: Flood, 250 g ai/ha; 0 to 100 scale where 0 is no effect and 100 is complete control; 13 to 15 d
Outline: as §2

[15] = tested on: Kochia (Kochia scoparia); assay: Test A preemergence; conditions: for Kochia plant response rating (0 to 100 scale, 0 is no effect, 100 is complete control): visual injury approx. 10 d
Outline: as §1

[16] = tested on: barnyardgrass (Echinochloa crus-galli); assay: Test A preemergence; conditions: for Barnyardgrass plant response rating (0 to 100 scale, 0 is no effect, 100 is complete control): visual injury approx. 10 d
Outline: as §1

[17] = tested on: giant foxtail (Setaria faberii); assay: Test A preemergence; conditions: for Foxtail, Giant plant response rating (0 to 100 scale, 0 is no effect, 100 is complete control): visual injury approx. 10 d
Outline: as §1

[18] = tested on: ryegrass, Italian (Italian ryegrass, Lolium multiflorum); assay: Test A preemergence; conditions: for Ryegrass, Italian plant response rating (0 to 100 scale, 0 is no effect, 100 is complete control): visual injury approx. 10 d
Outline: as §1

[19] = tested on: pigweed (Amaranthus retroflexus); assay: Test A preemergence; conditions: for Pigweed plant response rating (0 to 100 scale, 0 is no effect, 100 is complete control): visual injury approx. 10 d
[20] = tested on: ragweed (common ragweed, Ambrosia elatior); assay: Test A preemergence; conditions: for Ragweed plant response rating (0 to 100 scale, 0 is no effect, 100 is complete control): visual injury approx. 10 d
Outline: as §1

[21] = 125 g ai/ha, postemergence, visual rating after approx. 10 d, 0 to 100 scale (0 no effect, 100 complete control)
[22] = Postemergence, 500 g ai/ha, 0 to 100 scale where 0 is no effect and 100 is complete control
[23] = 125 g ai/ha, Preemergence, visual injury after approximately 10 d, 0 to 100 scale where 0 is no effect and 100 is complete control
[24] = 500 g ai/ha, preemergence, 0 to 100 scale, 0 = no effect, 100 = complete control

SMILES | Plant response rating, Kochia [1, 21] | Plant response rating, Kochia [1, 22] | Plant response rating, Corn [2, 21] | Plant response rating, Corn [2, 22] | Plant response rating, Galium [3, 21] | Plant response rating, Galium [3, 22] | Plant response rating, Barnyardgrass [4, 21] | Plant response rating, Barnyardgrass [4, 22] | Plant response rating, Foxtail, Giant [5, 21] | Plant response rating, Foxtail, Giant [5, 22] | Plant response rating, Blackgrass [6, 21] | Plant response rating, Blackgrass [6, 22] | Plant response rating, Ryegrass, Italian [7, 21] | Plant response rating, Ryegrass, Italian [7, 22] | Plant response rating, Pigweed [8, 21] | Plant response rating, Pigweed [8, 22] | Plant response rating, Ragweed [9, 21] | Plant response rating, Ragweed [9, 22] | Plant response rating, Wheat [10, 21] | Plant response rating, Wheat [10, 22] | further results
O=C1NCC(c2cc(C(F)(F)F)ccc2F)C1C(=O)Nc1cccc(F)c1F (stereo not drawn) [Compound 594] | 0 | 40 | 60 | 70 | 0 | 20 | 90 | 90 | 90 | 90 | 50 | 60 | 20 | 30 | 0 | 40 | 0 | 50 | 30 | 70 | Plant response rating, Ducksalad [11]: 90; Plant response rating, Sedge, Umbrella [12]: 0; Plant response rating, Barnyardgrass [13]: 70; Plant response rating, Rice [14]: 35; Plant response rating, Kochia [15, 23]: 0; Kochia plant response rating (0 to 100 scale, 0 is no effect, 100 is complete control) ([15]; Preemergence, 500 g ai/ha): 50; Plant response rating, Barnyardgrass [16, 23]: 90; Barnyardgrass plant response rating (0 to 100 scale, 0 is no effect, 100 is complete control) ([16]; Preemergence, 500 g ai/ha): 90; Plant response rating, Foxtail, Giant [17, 23]: 90; Foxtail, Giant plant response rating (0 to 100 scale, 0 is no effect, 100 is complete control) ([17]; Preemergence, 500 g ai/ha): 90; Plant response rating, Ryegrass, Italian [18, 23]: 30; Ryegrass, Italian plant response rating (0 to 100 scale, 0 is no effect, 100 is complete control) ([18]; Preemergence, 500 g ai/ha): 90; Plant response rating, Pigweed [19, 23]: 0; Pigweed plant response rating (0 to 100 scale, 0 is no effect, 100 is complete control) ([19]; Preemergence, 500 g ai/ha): 20; Plant response rating, Ragweed [20, 23]: 0; Ragweed plant response rating (0 to 100 scale, 0 is no effect, 100 is complete control) ([20]; Preemergence, 500 g ai/ha): 20
O=C1NCC(c2cc(C(F)(F)F)ccc2F)C1C(=O)Nc1ccc(F)cc1F (stereo not drawn) [Compound 595] | 0 | 30 | 30 | 60 | 0 | 20 | 90 | 90 | 90 | 90 | 20 | 40 | 20 | 40 | 20 | 30 | 0 | 0 | 30 | 50 | Plant response rating, Ducksalad [11]: 80; Plant response rating, Sedge, Umbrella [12]: 70; Plant response rating, Barnyardgrass [13]: 50; Plant response rating, Rice [14]: 20; Plant response rating, Kochia [15, 23]: 40; Kochia plant response rating (0 to 100 scale, 0 is no effect, 100 is complete control) ([15]; Preemergence, 500 g ai/ha): 50; Plant response rating, Barnyardgrass [16, 23]: 90; Barnyardgrass plant response rating (0 to 100 scale, 0 is no effect, 100 is complete control) ([16]; Preemergence, 500 g ai/ha): 90; Plant response rating, Foxtail, Giant [17, 23]: 90; Foxtail, Giant plant response rating (0 to 100 scale, 0 is no effect, 100 is complete control) ([17]; Preemergence, 500 g ai/ha): 90; Plant response rating, Ryegrass, Italian [18, 23]: 20; Ryegrass, Italian plant response rating (0 to 100 scale, 0 is no effect, 100 is complete control) ([18]; Preemergence, 500 g ai/ha): 40; Plant response rating, Pigweed [19, 23]: 30; Pigweed plant response rating (0 to 100 scale, 0 is no effect, 100 is complete control) ([19]; Preemergence, 500 g ai/ha): 30; Plant response rating, Ragweed [20, 23]: 0; Ragweed plant response rating (0 to 100 scale, 0 is no effect, 100 is complete control) ([20]; Preemergence, 500 g ai/ha): 30
O=C1NCC(c2ccsc2Br)C1C(=O)Nc1ccccc1F (stereo not drawn) [Compound 597] | 0 | 0 | 0 | 20 | 0 | 20 | 0 | 30 | 0 | 30 | 0 | 20 | 0 | 0 | 0 | 0 | 0 | 0 | 0 | 20 | Plant response rating, Ducksalad [11]: 50; Plant response rating, Sedge, Umbrella [12]: 0; Plant response rating, Barnyardgrass [13]: 0; Plant response rating, Rice [14]: 0; Plant response rating, Kochia [15, 23]: 0; Kochia plant response rating (0 to 100 scale, 0 is no effect, 100 is complete control) ([15]; Preemergence, 500 g ai/ha): 20; Plant response rating, Barnyardgrass [16, 23]: 20; Barnyardgrass plant response rating (0 to 100 scale, 0 is no effect, 100 is complete control) ([16]; Preemergence, 500 g ai/ha): 70; Plant response rating, Foxtail, Giant [17, 23]: 20; Foxtail, Giant plant response rating (0 to 100 scale, 0 is no effect, 100 is complete control) ([17]; Preemergence, 500 g ai/ha): 80; Plant response rating, Ryegrass, Italian [18, 23]: 0; Ryegrass, Italian plant response rating (0 to 100 scale, 0 is no effect, 100 is complete control) ([18]; Preemergence, 500 g ai/ha): 0; Plant response rating, Pigweed [19, 23]: 0; Pigweed plant response rating (0 to 100 scale, 0 is no effect, 100 is complete control) ([19]; Preemergence, 500 g ai/ha): 0; Plant response rating, Ragweed [20, 23]: 0; Ragweed plant response rating (0 to 100 scale, 0 is no effect, 100 is complete control) ([20]; Preemergence, 500 g ai/ha): 0
O=C1NCC(c2cc(F)c(F)cc2F)C1C(=O)Nc1ccc(F)c(F)c1F (stereo not drawn) [Compound 614] | 0 | 50 | 0 | 20 | 30 | 40 | 80 | 90 | 80 | 90 | 30 | 70 | 0 | 20 | 0 | 30 | 0 | 0 | 0 | 40 | Plant response rating, Ducksalad [11]: 100; Plant response rating, Sedge, Umbrella [12]: 0; Plant response rating, Barnyardgrass [13]: 65; Plant response rating, Rice [14]: 10; Plant response rating, Kochia [15, 23]: 0; Plant response rating, Kochia [15, 24]: 20; Plant response rating, Barnyardgrass [16, 23]: 50; Plant response rating, Barnyardgrass [16, 24]: 90; Plant response rating, Foxtail, Giant [17, 23]: 90; Plant response rating, Foxtail, Giant [17, 24]: 90; Plant response rating, Ryegrass, Italian [18, 23]: 0; Plant response rating, Ryegrass, Italian [18, 24]: 20; Plant response rating, Pigweed [19, 23]: 0; Plant response rating, Pigweed [19, 24]: 0; Plant response rating, Ragweed [20, 23]: 0; Plant response rating, Ragweed [20, 24]: 0
CN1CC(c2ccc(C(F)(F)F)cc2)C(C(=O)Nc2ccc(F)cc2F)C1=O (stereo not drawn) [Compound 625] | 30 | 50 | 10 | 50 | 30 | 60 | 80 | 90 | 90 | 90 | 30 | 40 | 20 | 30 | 20 | 50 | 0 | 20 | 0 | 50 | Plant response rating, Ducksalad [11]: 100; Plant response rating, Sedge, Umbrella [12]: 0; Plant response rating, Barnyardgrass [13]: 40; Plant response rating, Rice [14]: 0; Plant response rating, Kochia [15, 23]: 50; Plant response rating, Kochia [15, 24]: 80; Plant response rating, Barnyardgrass [16, 23]: 80; Plant response rating, Barnyardgrass [16, 24]: 90; Plant response rating, Foxtail, Giant [17, 23]: 90; Plant response rating, Foxtail, Giant [17, 24]: 90; Plant response rating, Ryegrass, Italian [18, 23]: 30; Plant response rating, Ryegrass, Italian [18, 24]: 50; Plant response rating, Pigweed [19, 23]: 50; Plant response rating, Pigweed [19, 24]: 90; Plant response rating, Ragweed [20, 23]: 20; Plant response rating, Ragweed [20, 24]: 60
